Results from patent US20100035866A1, “NOVEL SUBSTITUTED-1, 1-DIOXO-BENZO[1,2,4]THIADIAZIN-3ONES, PREPARATION METHOD THEREOF, AND PHARMACEUTICAL COMPOSITION CONTAINING THE SAME” (KOREA RESEARCH INSTITUTE OF CHEMICAL TECHNOLOGY, priority 2006, published 2010).

Columns and labels:
[1] = biological target: Human serotonin 5-HT6 receptor (Homo sapiens, UniProt P50406); assay: [3H]LSD binding assay on cloned 5-HT6 receptor; details: IC50 (nM)
[2] = biological target: T1, 5-HT2a (Homo sapiens, UniProt P28223); assay: Radioligand binding, 5-HT receptor family: 5-HT2a ([3H]Ketanserin); details: CHO-K1 human recombinant receptor, [3H]Ketanserin 1 nM; read-out: Binding affinity, IC50 (nM), 5-HT2a
T1 construct: purchased Euroscreen/BioSignal Packard Inc
T1 sequence (P28223 whole entry): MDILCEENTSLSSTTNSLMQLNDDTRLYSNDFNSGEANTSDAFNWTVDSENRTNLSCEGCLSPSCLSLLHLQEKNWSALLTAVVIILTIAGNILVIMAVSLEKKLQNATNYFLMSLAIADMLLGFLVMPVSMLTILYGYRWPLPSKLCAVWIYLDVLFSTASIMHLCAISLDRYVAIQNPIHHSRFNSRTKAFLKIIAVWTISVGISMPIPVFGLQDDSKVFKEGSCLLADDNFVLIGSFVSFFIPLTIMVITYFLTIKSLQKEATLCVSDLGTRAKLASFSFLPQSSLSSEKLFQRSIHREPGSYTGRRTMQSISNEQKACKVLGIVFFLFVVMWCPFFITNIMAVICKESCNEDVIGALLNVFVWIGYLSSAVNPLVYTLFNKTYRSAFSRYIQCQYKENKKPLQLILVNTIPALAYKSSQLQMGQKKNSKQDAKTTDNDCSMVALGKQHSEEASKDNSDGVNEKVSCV

[3] = biological target: T2, 5-HT1a (Homo sapiens, UniProt P08908); assay: Radioligand binding, 5-HT receptor family: 5-HT1a ([3H]8-OH-DPAT); details: CHO-K1 human recombinant receptor, [3H]8-OH-DPAT 0.5 nM; read-out: Binding affinity, IC50 (nM), 5-HT1a
T2 construct: purchased Euroscreen/BioSignal Packard Inc
T2 sequence (P08908 1-422): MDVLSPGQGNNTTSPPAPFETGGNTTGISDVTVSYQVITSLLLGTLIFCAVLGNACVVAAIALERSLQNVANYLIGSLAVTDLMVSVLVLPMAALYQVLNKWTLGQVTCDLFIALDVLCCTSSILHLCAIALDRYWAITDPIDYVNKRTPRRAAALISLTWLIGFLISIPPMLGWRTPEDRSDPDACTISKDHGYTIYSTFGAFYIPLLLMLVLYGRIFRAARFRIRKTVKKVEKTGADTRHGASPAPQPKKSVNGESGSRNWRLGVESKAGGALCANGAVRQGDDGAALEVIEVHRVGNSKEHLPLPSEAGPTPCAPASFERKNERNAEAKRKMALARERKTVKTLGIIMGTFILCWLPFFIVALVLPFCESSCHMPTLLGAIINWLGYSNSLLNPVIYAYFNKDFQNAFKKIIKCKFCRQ

[4] = biological target: T3, 5-HT2c (Homo sapiens, UniProt P28335); assay: Radioligand binding, 5-HT receptor family: 5-HT2c ([3H]Mesulergine); details: CHO-K1 human recombinant receptor, [3H]Mesulergine 1 nM; read-out: Binding affinity, IC50 (nM), 5-HT2c
T3 construct: purchased Euroscreen/BioSignal Packard Inc
T3 sequence (P28335 33-458): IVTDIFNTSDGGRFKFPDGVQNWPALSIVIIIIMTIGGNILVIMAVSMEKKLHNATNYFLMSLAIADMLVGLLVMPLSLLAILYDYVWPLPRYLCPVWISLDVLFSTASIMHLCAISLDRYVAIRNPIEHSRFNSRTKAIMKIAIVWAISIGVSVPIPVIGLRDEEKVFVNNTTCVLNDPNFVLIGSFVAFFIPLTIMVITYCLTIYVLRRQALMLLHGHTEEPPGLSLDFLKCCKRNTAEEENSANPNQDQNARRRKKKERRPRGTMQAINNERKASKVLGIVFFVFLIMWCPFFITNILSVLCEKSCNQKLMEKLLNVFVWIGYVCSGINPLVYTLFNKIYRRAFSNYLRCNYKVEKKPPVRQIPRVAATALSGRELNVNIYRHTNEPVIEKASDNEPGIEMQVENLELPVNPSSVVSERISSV

[5] = biological target: T4, hD3 receptor (Homo sapiens, UniProt P35462); assay: Dopamine receptor family binding: D3 ([3H]spiperone); details: [3H]spiperone 1 nM; read-out: Binding affinity, IC50 (nM), D3
T4 construct: purchased BioSignal Packard Inc., Montreal, Canada
T4 sequence (P35462 whole entry): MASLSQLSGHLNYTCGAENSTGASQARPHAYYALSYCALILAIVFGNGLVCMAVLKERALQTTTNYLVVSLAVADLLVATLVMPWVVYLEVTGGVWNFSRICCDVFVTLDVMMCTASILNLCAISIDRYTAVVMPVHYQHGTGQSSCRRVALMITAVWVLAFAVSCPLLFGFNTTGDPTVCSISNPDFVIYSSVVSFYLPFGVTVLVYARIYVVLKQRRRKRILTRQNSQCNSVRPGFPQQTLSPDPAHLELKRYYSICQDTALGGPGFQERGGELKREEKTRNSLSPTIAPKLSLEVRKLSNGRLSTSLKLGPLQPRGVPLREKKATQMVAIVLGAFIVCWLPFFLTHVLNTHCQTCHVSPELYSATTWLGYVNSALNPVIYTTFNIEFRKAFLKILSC

[6] = biological target: T5, hD2L receptor (Homo sapiens, UniProt P14416); assay: Dopamine receptor family binding: D2 ([3H]spiperone); details: [3H]spiperone 1 nM; read-out: Binding affinity, IC50 (nM), D2
T5 construct: purchased BioSignal Packard Inc., Montreal, Canada
T5 sequence (P14416 whole entry): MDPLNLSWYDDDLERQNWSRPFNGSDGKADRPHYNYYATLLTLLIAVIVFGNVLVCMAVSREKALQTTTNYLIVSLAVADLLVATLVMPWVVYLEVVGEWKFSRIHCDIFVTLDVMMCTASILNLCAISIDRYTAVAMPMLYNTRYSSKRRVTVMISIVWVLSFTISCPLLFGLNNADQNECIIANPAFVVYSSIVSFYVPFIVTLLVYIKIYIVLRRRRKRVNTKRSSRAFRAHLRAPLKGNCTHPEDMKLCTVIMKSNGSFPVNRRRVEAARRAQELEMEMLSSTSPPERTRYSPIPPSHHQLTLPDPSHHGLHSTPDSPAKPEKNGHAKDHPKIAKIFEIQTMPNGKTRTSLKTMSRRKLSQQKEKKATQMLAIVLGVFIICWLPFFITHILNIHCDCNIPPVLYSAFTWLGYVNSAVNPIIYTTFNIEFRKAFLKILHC
Procedure: (§1) 2-2: Binding Assays of Dopamine Receptor Family
(§2) The radioligands used were [^3H]spiperone (for hD2L and hD3 receptors, 1 nM) and [^3H] YM-09151-2 (for hD4.2 receptor, 0.06 nM). Radioligand bindings were performed by the protocols provided by the supplier of receptor membranes (BioSignal Packard Inc., Montreal, Canada). Briefly, the buffer used in D2 or D3 receptor binding assay was 50 mM Tris-HCl (pH 7.4), 10 mM MgCl2, 1 mM EDTA, or 50 mM Tris-HCl (pH 7.4), 5 mM MgCl2 5 mM EDTA, 5 mM KCl, 1.5 mM CaCl2, 120 mM NaCl, respectively. In [^3H] YM-09151-2 receptor binding assays, the buffer containing 50 mM Tris-HCl (pH 7.4), 5 mM MgCl2, 5 mM EDTA, 5 mM KCl and 1.5 mM CaCl2 was used. […] Competition binding studies were carried out with 7-8 concentrations of the test compound run in duplicate tubes, and isotherms from three assays were calculated by computerized nonlinear regression analysis (GraphPad Prism Program, San Diego, […]) to yield median inhibitory concentration (IC50) values.

[7] = biological target: T6, 5-HT7 (Homo sapiens, UniProt P34969); assay: Radioligand binding, 5-HT receptor family: 5-HT7 ([3H]LSD); details: CHO-K1 human recombinant receptor, [3H]LSD 3 nM; read-out: Binding affinity, IC50 (nM), 5-HT7
T6 construct: purchased Euroscreen/BioSignal Packard Inc
T6 sequence (P34969 whole entry): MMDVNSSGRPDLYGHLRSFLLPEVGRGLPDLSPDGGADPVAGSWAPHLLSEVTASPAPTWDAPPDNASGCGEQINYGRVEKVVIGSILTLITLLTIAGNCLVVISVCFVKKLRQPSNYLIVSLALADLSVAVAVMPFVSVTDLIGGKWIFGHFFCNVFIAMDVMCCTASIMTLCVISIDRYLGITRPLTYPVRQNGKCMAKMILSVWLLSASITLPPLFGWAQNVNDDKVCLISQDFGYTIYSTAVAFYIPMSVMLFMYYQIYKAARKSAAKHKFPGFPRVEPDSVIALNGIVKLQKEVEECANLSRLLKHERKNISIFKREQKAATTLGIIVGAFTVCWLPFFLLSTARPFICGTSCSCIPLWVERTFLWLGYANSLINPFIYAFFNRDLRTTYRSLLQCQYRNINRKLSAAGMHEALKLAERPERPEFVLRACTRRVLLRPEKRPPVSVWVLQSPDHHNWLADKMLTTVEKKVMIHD
Procedure: Radioligand bindings were performed according to the test method provided by the supplier of receptor membrane (Euroscreen/BioSignal Packard Inc.). The detailed assay conditions and the results were shown in the following Table 3 and Table 4, respectively.

[8] = biological target: T7, hD4.2 receptor (Homo sapiens, UniProt P21917, DEL265-296); assay: Dopamine receptor family binding: D4 ([3H]YM-09151-2); details: [3H]YM-09151-2 0.06 nM; read-out: Binding affinity, IC50 (nM), D4
T7 construct: purchased BioSignal Packard Inc., Montreal, Canada
T7 sequence (P21917 with tags, fused parts or gaps DEL265-296): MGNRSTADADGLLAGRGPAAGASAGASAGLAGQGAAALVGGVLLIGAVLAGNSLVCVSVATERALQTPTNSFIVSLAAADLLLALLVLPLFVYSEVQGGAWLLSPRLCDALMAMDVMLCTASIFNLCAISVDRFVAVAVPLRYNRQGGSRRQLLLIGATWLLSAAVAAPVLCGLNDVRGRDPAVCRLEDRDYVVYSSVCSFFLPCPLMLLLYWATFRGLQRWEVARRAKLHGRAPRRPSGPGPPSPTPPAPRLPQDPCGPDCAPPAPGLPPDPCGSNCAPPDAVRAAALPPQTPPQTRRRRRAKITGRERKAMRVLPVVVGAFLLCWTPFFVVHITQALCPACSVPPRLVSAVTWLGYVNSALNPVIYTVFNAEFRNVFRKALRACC
Procedure: as §1, §2

[9] = biological target: D1 (Homo sapiens, UniProt P21728); assay: Dopamine receptor family binding: D1; details: read-out: Binding affinity, IC50 (nM), D1
Sequence of D1 (P21728 whole entry): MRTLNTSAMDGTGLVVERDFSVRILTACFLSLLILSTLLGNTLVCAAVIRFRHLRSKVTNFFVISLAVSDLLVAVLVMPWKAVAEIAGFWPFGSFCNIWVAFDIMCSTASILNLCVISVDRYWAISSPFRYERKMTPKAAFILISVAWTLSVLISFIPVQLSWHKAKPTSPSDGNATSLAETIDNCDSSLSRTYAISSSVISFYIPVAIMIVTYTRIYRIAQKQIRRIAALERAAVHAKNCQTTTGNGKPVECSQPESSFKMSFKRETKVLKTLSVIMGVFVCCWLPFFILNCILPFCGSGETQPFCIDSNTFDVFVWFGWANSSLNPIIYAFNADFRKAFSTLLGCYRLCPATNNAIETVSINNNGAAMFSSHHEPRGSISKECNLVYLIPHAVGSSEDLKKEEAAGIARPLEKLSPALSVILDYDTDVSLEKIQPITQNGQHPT

[10] = Binding affinity, 5-HT6, Table 4
[11] = binding affinity to the 5-HT6 receptor, Table 2, 1.87 nM [3H]LSD, cloned human receptor membranes from Sf21 cells, 37° C. 60 min

Sequence of Human serotonin 5-HT6 receptor (P50406 whole entry): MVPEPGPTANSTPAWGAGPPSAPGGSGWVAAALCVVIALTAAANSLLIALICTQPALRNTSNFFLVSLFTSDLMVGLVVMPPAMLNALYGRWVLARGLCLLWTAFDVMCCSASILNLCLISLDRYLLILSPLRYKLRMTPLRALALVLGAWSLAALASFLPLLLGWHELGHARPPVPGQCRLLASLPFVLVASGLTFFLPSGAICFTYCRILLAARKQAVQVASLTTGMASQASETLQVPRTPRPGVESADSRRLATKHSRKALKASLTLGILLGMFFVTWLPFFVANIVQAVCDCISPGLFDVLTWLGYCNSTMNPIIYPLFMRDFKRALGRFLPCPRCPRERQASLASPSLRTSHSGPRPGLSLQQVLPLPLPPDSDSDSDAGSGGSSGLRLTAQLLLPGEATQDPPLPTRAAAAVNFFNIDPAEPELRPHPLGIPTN

## Cc1cc(C)cc(CCCN2C(=O)N(Cc3ccccc3)c3cc(Cl)cc(N4CCNCC4)c3S2(=O)=O)c1 [Example 66, 4-Benzyl-6-chloro-2-[3-(3,5-dimethyl-phenyl)-propyl]-1,1-dioxo-8-piperazin-1-yl-1,4-dihydro-2H-1λ^6-benzo[1,2,4]thiadiazin-3-one]
[1]; [10]
  IC50: 3.8 nM
[1]; [11]
  IC50: 3.8 nM
[2]
  IC50: 710 nM
[3]
  IC50: 1840 nM
[4]
  IC50: 498 nM
[5]
  IC50: 488 nM
[6]
  IC50: 1640 nM
[7]
  IC50: 4530 nM
[8]
  IC50: > 10000 nM
[9]
  IC50: 1180 nM
other
  melting point: 226 to 228 °C

## COc1cccc(CN2C(=O)N(Cc3ccccc3)c3cc(Cl)cc(N4CCNCC4)c3S2(=O)=O)c1 [Example 52, 4-Benzyl-6-chloro-2-(3-methoxy-benzyl)-1,1-dioxo-8-piperazin-1-yl-1,4-dihydro-2H-1λ^6-benzo[1,2,4]thiadiazin-3-one]
[1]; [10]
  IC50: 2 nM
[1]; [11]
  IC50: 5.8 nM
[2]
  IC50: 1000 nM
[3]
  IC50: 1860 nM
[4]
  IC50: 1350 nM
[5]
  IC50: 531 nM
[6]
  IC50: 3220 nM
[7]
  IC50: 6780 nM
[8]
  IC50: > 10000 nM
[9]
  IC50: 3140 nM
other
  melting point: 98 to 100 °C

## COc1cccc(N2C(=O)N(Cc3ccccc3)c3cc(Cl)cc(N4CCNCC4)c3S2(=O)=O)c1 [Example 62, 4-Benzyl-6-chloro-2-(3-methoxy-phenyl)-1,1-dioxo-8-piperazin-1-yl-1,4-dihydro-2H-1λ^6-benzo[1,2,4]thiadiazin-3-one]
[1]; [10]
  IC50: 10.2 nM
[1]; [11]
  IC50: 10.2 nM
[2]
  IC50: 3170 nM
[3]
  IC50: 926 nM
[4]
  IC50: 4960 nM
[5]
  IC50: 2370 nM
[6]
  IC50: > 10000 nM
[7]
  IC50: > 10000 nM
[8]
  IC50: > 10000 nM
[9]
  IC50: 5590 nM

## COc1ccc(CN2C(=O)N(Cc3ccccc3)c3cc(Cl)cc(N4CCNCC4)c3S2(=O)=O)cc1 [Example 53, 4-Benzyl-6-chloro-2-(4-methoxy-benzyl)-1,1-dioxo-8-piperazin-1-yl-1,4-dihydro-2H-1λ^6-benzo[1,2,4]thiadiazin-3-one]
[1]; [10]
  IC50: 11.8 nM
[1]; [11]
  IC50: 11.8 nM
[2]
  IC50: 651 nM
[3]
  IC50: 3260 nM
[4]
  IC50: 961 nM
[5]
  IC50: 844 nM
[6]
  IC50: 2440 nM
[7]
  IC50: 6580 nM
[8]
  IC50: > 10000 nM
[9]
  IC50: > 10000 nM

## O=C1N(Cc2ccccc2)c2cc(Cl)cc(N3CCNCC3)c2S(=O)(=O)N1Cc1cccc(O)c1 [Example 54, 4-Benzyl-6-chloro-2-(3-hydroxy-benzyl)-1,1-dioxo-8-piperazin-1-yl-1,4-dihydro-2H-1λ^6-benzo[1,2,4]thiadiazin-3-one]
[1]; [10]
  IC50: 5.8 nM
[1]; [11]
  IC50: 1 nM
[2]
  IC50: 1150 nM
[3]
  IC50: 621 nM
[4]
  IC50: 1800 nM
[5]
  IC50: 804 nM
[6]
  IC50: 2280 nM
[7]
  IC50: > 10000 nM
[8]
  IC50: > 10000 nM
[9]
  IC50: 4100 nM
other
  melting point: 230 to 231 °C

## C[C@@H](c1ccccc1)N1C(=O)N(Cc2ccccc2)c2cc(Cl)cc(N3CCN(C)CC3)c2S1(=O)=O [Example 26, 4-Benzyl-6-chloro-8-(4-methyl-piperazin-1-yl)-1,1-dioxo-2-[(S)-1-phenyl-ethyl]-1,4-dihydro-2H-1λ^6-benzo[1,2,4]thiadiazin-3-one]
[1]; [10]
  IC50: 2.4 nM
[1]; [11]
  IC50: 2.4 nM
[2]
  IC50: 145 nM
[3]
  IC50: 589 nM
[4]
  IC50: 183 nM
[5]
  IC50: 715 nM
[6]
  IC50: 6580 nM
[7]
  IC50: 8250 nM
[8]
  IC50: > 10000 nM
[9]
  IC50: 1760 nM

## COc1cccc(CN2C(=O)N(Cc3ccccc3)c3cc(Cl)cc(N4CCN(C)CC4)c3S2(=O)=O)c1 [Example 17, 4-Benzyl-6-chloro-2-(3-methoxy-benzyl)-8-(4-methyl-piperazin-1-yl)-1,1-dioxo-1,4-dihydro-2H-1λ^6-benzo[1,2,4]thiadiazin-3-one]
[1]; [10]
  IC50: 10.9 nM
[1]; [11]
  IC50: 10.6 nM
[2]
  IC50: 318 nM
[3]
  IC50: 1950 nM
[4]
  IC50: 899 nM
[5]
  IC50: 537 nM
[6]
  IC50: 4860 nM
[7]
  IC50: > 10000 nM
[8]
  IC50: > 10000 nM
[9]
  IC50: 4730 nM
other
  melting point: 85 to 86 °C

## COc1ccc(CN2C(=O)N(Cc3ccccc3)c3cc(Cl)cc(N4CCN(C)CC4)c3S2(=O)=O)cc1 [Example 18, 4-Benzyl-6-chloro-2-(4-methoxy-benzyl)-8-(4-methyl-piperazin-1-yl)-1,1-dioxo-1,4-dihydro-2H-1λ^6-benzo[1,2,4]thiadiazin-3-one]
[1]; [10]
  IC50: 3.6 nM
[1]; [11]
  IC50: 3.6 nM
[2]
  IC50: 563 nM
[3]
  IC50: 3420 nM
[4]
  IC50: 990 nM
[5]
  IC50: 1220 nM
[6]
  IC50: 6580 nM
[7]
  IC50: > 10000 nM
[8]
  IC50: > 10000 nM
[9]
  IC50: > 10000 nM
